According to US8623909B2, “Prophylactic/therapeutic agents for lifestyle-related diseases” (priority 2008, dated 2014):
Marks after values point to notes of the source that are not given here.

Tests used:
[1] = tested on: B6 mice on high-fat diet; assay: Glucose tolerance test in high-fat diet B6 mice; type: in vivo, mouse; conditions: high-fat diet mice after 16 weeks, glucose 1 g/kg
Description: (§1) 9-week-old B6 mice were divided into a control group, high-fat diet group and high-fat diet+compound of formula (Ia) group of 10 animals each, and housed and observed for 16 weeks. During this period, the compound of formula (Ia) was subcutaneously injected at 10 mg/kg every other day, body weights were measured once a week, and food intake was measured once every 4 weeks.
In addition, glucose tolerance tests were also carried out on the mice after housing for 16 weeks. The mice were divided into groups of 5 mice each, injected at 1 g/kg, and glucose value was then measured over time.

[2] = tested on: UCP-1 mRNA in NIH-3T3-L1 cells; assay: UCP-1 mRNA expression level in NIH-3T3-L1 cells (real-time PCR); type: cell-based, mouse; conditions: 10^−5M, 24 hours, control (DMSO) 1.0
Description: (§2) 1) Extraction of Total RNA
(§3) After respectively culturing the LNCaP cells and NIH-3T3-L1 cells co-transfected in 1) to 3) above in 6-well plates, the cells were cultured for 24 hours in EMEM or RPMI 1640 containing 10% fetal calf serum treated with dextran-charcoal and a test compound (dissolved in a small amount of DMSO). Subsequently, total RNA was respectively extracted using Isogen (Wako Pure Chemical Industries).
(§4) 5 μg aliquots of each total RNA obtained in 1) above were reverse-transcribed to first strand cDNA using a Superscript III Kit (Invitrogen) and brought to a final volume of 20 μL. Real-time PCR was carried out using LightCycler FastStart DNA Master SYBR Green I (Roche Diagnostic) in order to quantify expression of PSA mRNA in LNCaP cells and UCP-1 mRNA in NIH-3T3-L1 cells. PCR was carried out under the following conditions in 20 μL of reaction mixture: 50 cycles consisting of denaturing for 3 seconds at 95° C., annealing for 10 seconds at 60° C. and elongating for 25 seconds at 72° C. β-actin mRNA was also simultaneously amplified for use as an internal standard. Real-time PCR value for each transcription product were calculated as a relative ratio to β-actin.

[3] = tested on: PSA mRNA in LNCaP cells; assay: PSA mRNA expression level in LNCaP cells (real-time PCR); type: cell-based, human; conditions: 10^−5M, 24 hours, control (DMSO) 1.0
Description: as §2, §3, §4

[4] = target: T1, GFP-AR (Homo sapiens, UniProt P10275); assay: Subnuclear localization of GFP-AR in NIH-3T3-L1 cells; type: cell-based, mouse; parameters: expressed in transfected cells; host or cells: NIH-3T3-L1 cells; conditions: 10^−5 M, FIG. 4
T1 sequence (P10275 1-920): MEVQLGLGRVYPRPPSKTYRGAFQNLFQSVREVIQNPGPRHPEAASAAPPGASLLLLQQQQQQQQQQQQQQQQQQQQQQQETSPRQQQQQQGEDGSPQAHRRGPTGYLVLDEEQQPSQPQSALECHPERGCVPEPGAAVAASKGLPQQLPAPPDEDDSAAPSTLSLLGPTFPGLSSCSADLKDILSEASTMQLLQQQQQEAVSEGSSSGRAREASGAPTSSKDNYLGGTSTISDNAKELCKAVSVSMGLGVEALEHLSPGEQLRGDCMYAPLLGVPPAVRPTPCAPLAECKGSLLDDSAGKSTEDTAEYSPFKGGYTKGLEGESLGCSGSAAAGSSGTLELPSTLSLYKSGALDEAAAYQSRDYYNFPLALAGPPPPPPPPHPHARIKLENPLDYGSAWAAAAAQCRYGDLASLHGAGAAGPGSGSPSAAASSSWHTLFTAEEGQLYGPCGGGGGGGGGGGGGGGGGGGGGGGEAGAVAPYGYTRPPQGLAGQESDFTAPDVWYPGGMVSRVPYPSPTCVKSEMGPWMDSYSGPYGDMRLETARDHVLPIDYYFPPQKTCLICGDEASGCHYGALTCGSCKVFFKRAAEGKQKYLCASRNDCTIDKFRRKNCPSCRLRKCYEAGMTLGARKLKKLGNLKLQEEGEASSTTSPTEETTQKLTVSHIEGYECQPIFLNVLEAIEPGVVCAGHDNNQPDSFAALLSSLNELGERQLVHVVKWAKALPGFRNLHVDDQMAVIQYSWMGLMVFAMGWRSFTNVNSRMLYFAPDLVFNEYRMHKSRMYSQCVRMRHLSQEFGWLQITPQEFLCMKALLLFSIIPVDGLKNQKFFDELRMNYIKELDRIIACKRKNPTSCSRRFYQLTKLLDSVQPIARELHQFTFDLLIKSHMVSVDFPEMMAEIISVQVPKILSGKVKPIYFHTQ

[5] = tested on: B6 mice on high-fat diet; assay: High-fat diet B6 mice, 16 weeks (body weight, serum glucose, serum insulin, food intake, visceral fat); type: in vivo, mouse; conditions: 10 mg/kg s.c. every other day
Description: as §1
After 16 weeks, the body weights, bone mineral densities, fat distributions and exercise levels of the mice were measured, followed by collecting blood samples and finally sacrificing the animals and collecting their organs. The average value of body weight, serum glucose concentration and serum insulin concentration of each group after 16 weeks are shown in the following Table 17.

[6] = tested on: ORX rats; assay: Total plasma adiponectin level in ORX rats; type: in vivo, rat; conditions: for Plasma adiponectin concentration: solvent 2.2, sham 1.3
Description: 11-week-old, male Sprague-Dawley (SD) rats (320 to 340 g, purchased from Charles River Japan) were housed for 1 week in a room maintained at a light-dark cycle of 12 hours per day and controlled at a set temperature and humidity while allowing free access to a commercially available standard rodent diet and water.
After housing the animals, the animals were anesthetized with ether, and underwent bilateral orchiectomy (orchiectomized rats: ORX) or a sham treatment. After awaking from the anesthesia, the animals were assigned to test groups of 3 to 5 animals each. Starting on the day after surgery, the animals were subcutaneously injected once a day with an injection solution of the test compound (prepared by dissolving the test compound in a small amount of DMSO and diluting with olive oil for animal testing (consisting of 95% olive oil and 5% DMSO)) at the rate of 0.1 ml/100 g of body weight. After 21 days, the rats were sacrificed by exsanguination from the abdominal artery, the ventral prostates and anal levator muscle were excised and weighed followed by immersing in RNAlater (Nacalai Tesque) for extraction of RNA. In addition, soft tissue was removed from the right femur, and immersed in 75% ethanol followed by storage for subsequent measurement of the bone mineral density. Moreover, liver and visceral fat tissue were collected and immersed in RNAlater for RNA extraction.
The inventors of the present invention measured total plasma adiponectin levels in ORX rats treated in the aforementioned section (4)-1). Plasma insulin levels were also measured simultaneously.

[7] = target: T1, GFP-AR; assay: Subnuclear localization of GFP-AR in LNCaP cells; type: cell-based; parameters: expressed in transfected cells; host or cells: LNCaP cells; conditions: 10^−5 M, observed 3 hours later, FIG. 2

CC(=O)[C@H]1CCC2C3CCc4c(C)cccc4C3CC[C@@]21C (stereo partly shown) [Compound of formula (Ia)]
Glucose value in glucose tolerance test ([1]; 0 min after injection): 82.2^## mg/dL
Glucose value in glucose tolerance test ([1]; 15 min after injection): 293.6 mg/dL
Glucose value in glucose tolerance test ([1]; 30 min after injection): 327.6* mg/dL
Glucose value in glucose tolerance test ([1]; 60 min after injection): 249.4 mg/dL
Glucose value in glucose tolerance test ([1]; 90 min after injection): 262.0* mg/dL
Glucose value in glucose tolerance test ([1]; 120 min after injection): 163.0 mg/dL
UCP-1 mRNA (relative ratio to β-actin mRNA) [2]: 2.1*
PSA mRNA (relative ratio to β-actin mRNA) [3]: 0.8
GFP-AR nuclear translocation and foci (dots) formation [4]: formed the subnuclear foci (dots)
Body weight versus high-fat diet group (in words) ([5]; 16 weeks): significantly lower than in the high-fat diet group
Increase of serum glucose and serum insulin concentrations due to the high-fat diet (in words) ([5]; 16 weeks): significantly inhibited
Accumulation of visceral fat (in words) ([5]; 16 weeks, FIG. 6): roughly the same as that of the rat of the ordinary diet group
Serum insulin concentration (average) ([5]; after 16 weeks, high-fat diet alone 0.46, ordinary diet 0.13): 0.27^# ng/mL
Body weight (average) ([5]; after 16 weeks, high-fat diet alone 36.6, ordinary diet 30.7): 34.9^### g
Serum glucose concentration (average) ([5]; after 16 weeks, high-fat diet alone 113.2, ordinary diet 75): 82.2^## mg/dL
Plasma adiponectin concentration ([6]; 1 mg/Kg): 2.2* μg/mL
Plasma adiponectin concentration ([6]; 10 mg/Kg): 2.1* μg/mL
Effect on castration-induced increase of plasma adiponectin (in words) ([6]; 1 or 10 mg/kg): did not demonstrate such inhibitory activity on the adiponectin levels
GFP-AR nuclear translocation and foci (dots) formation [7]: clear foci (dots) were not formed
